Reference: US10750742B2, “Pesticidally active pyrazole derivatives” (SYNGENTA PARTICIPATIONS AG, priority 2015, dated 2020)
Like-named read-outs stand apart in the source and are kept apart here.

Assays:
Format in all cases: in vivo
[1] = test system: Euschistus heros; assay: Euschistus heros (neotropical brown stink bug), soybean leaf test; conditions: 120 h, read-out: effect in at least one of the two categories (mortality or growth inhibition); for percent effect (mortality or growth inhibition) at 200 ppm: application rate 200 ppm, N2 nymphs, 5 days after infestation
Method: Euschistus heros (Neotropical Brown Stink Bug):
Soybean leaves on agar in 24-well microtiter plates were sprayed with aqueous test solutions prepared from 10′000 ppm DMSO stock solutions. After drying the leaves were infested with N2 nymphs. The samples were assessed for mortality and growth inhibition in comparison to untreated samples 5 days after infestation.

[2] = test system: Myzus persicae; assay: Myzus persicae (green peach aphid), sunflower leaf disc spray test; conditions: foliar, 144 h
Method: (§1) Myzus persicae (Green Peach Aphid):
Sunflower leaf discs were placed on agar in a 24-well microtiter plate and sprayed with test solutions at an application rate of 200 ppm. After drying, the leaf discs were infested with an aphid population of mixed ages. After an incubation period of 6 DAT, samples were checked for mortality. The following compounds gave at least 80% mortality of Myzus persicae: compounds 1,2, 3, 4, 5, 6, 11, 12, 15, 17, 18, 19, 20, 23, 24, 25, 26, 27, 30, 32, 33, 34 35, 41, 43, 44, 47, 50, 55, 58, 59, 60, 61, 62, 63, 64, 65 and 66.

[3] = test system: Plutella xylostella; assay: Plutella xylostella (diamond back moth), artificial diet test; conditions: 120 h, read-out: control (mortality and growth inhibition)
Method: Plutella xylostella (Diamond Back Moth):
(§2) 24-well microtiter plates with artificial diet were treated with aqueous test solutions prepared from 10′000 ppm DMSO stock solutions by pipetting. After drying, the plates were infested with L2 larvae (10 to 15 per well). The samples were assessed for mortality and growth inhibition in comparison to untreated samples 5 days after infestation.

[4] = test system: Thrips tabaci; assay: Thrips tabaci (onion thrips), sunflower leaf disc test; conditions: foliar, 144 h, read-out: control (mortality)
Method: Thrips tabaci (Onion Thrips):
(§3) Sunflower leaf discs were placed on agar in 24-well microtiter plates and sprayed with aqueous test solutions prepared from 10′000 ppm DMSO stock solutions. After drying the leaf discs were infested with a thrips population of mixed ages. The samples were assessed for mortality 6 days after infestation.

[5] = test system: Tetranychus urticae; assay: Tetranychus urticae (two-spotted spider mite), bean leaf disc test; conditions: foliar, 192 h, read-out: control (mortality on mixed population, mobile stages)
Method: Tetranychus urticae (Two-Spotted Spider Mite):
as §3, with “Bean” for “Sunflower”, “discs” for “discs were placed”, “were” for “and”, “mite” for “thrips”, “on mixed population (mobile stages) 8” for “6”

[6] = test system: Spodoptera littoralis; assay: Spodoptera littoralis (Egyptian cotton leaf worm), cotton leaf disc spray test; conditions: foliar, 72 h, read-out: control (at least one of mortality, anti-feedant effect, growth inhibition); for percent control (mortality, anti-feedant effect or growth inhibition) at 200 ppm: application rate 200 ppm, L1 larvae, 3 days after infestation
Method: Spodoptera littoralis (Egyptian Cotton Leaf Worm)
Cotton leaf discs were placed on agar in 24-well microtiter plates and sprayed with aqueous test solutions prepared from 10′000 ppm DMSO stock solutions. After drying the leaf discs were infested with five L1 larvae. The samples were assessed for mortality, anti-feedant effect, and growth inhibition in comparison to untreated samples 3 days after infestation. Control of Spodoptera littoralis by a test sample is when at least one of mortality, anti-feedant effect, and growth inhibition is higher than the untreated sample.

[7] = test system: Myzus persicae; assay: Myzus persicae (green peach aphid), sucrose solution / Parafilm test; conditions: 120 h
Description: as §1
Test compounds were applied by pipette into 24 well plates and mixed with Sucrose solution. Application rate: 12.5 ppm. The plates were closed with a stretched parafilm. A plastic stencil with 24 holes is placed onto the plate and infested pea seedlings were placed directly on the Parafilm. The infested plate is closed with a gel blotting paper and another plastic stencil and then turned upside down. 5 days after infestation the samples were checked on mortality.

[8] = test system: Diabrotica balteata; assay: Diabrotica balteata (corn root worm), maize sprout test; conditions: 96 h, read-out: control (mortality and growth inhibition)
Method: Diabrotica balteata, (Corn Root Worm)
as §2, with “Maize sprouts, placed on an agar layer in 24-well” for “24-well”, “plates” for “plates with artificial diet”, “spraying.” for “pipetting.”, “(6” for “(10”, “10” for “15”, “4” for “5”

[9] = application rate 200 ppm, mixed ages, 6 DAT, read-out: mortality
[10] = application rate 200 ppm, L2 larvae, 5 days after infestation
[11] = application rate 200 ppm, mixed ages, 6 days after infestation
[12] = application rate 200 ppm, 8 days after infestation
[13] = test rate of 12 ppm, sucrose solution, 5 days after infestation, read-out: mortality
[14] = application rate 200 ppm, L2 larvae, 4 days after infestation

Cn1nc(OC(F)(F)C(F)OC(F)(F)C(F)(F)C(F)(F)F)c(C(F)(F)F)c1-n1cc(-c2ccc(Cl)c(C(=O)NC3(C#N)CC3)c2)cn1 (centres unmarked) [compound 17]
≥ 80%: percent control (mortality or growth inhibition) at 200 ppm [1] | mortality at 200 ppm [2] | mortality at 200 ppm [3] | mortality at 200 ppm [4] | mortality at 200 ppm [5] | mortality at 200 ppm [6] | mortality at 12 ppm [7] | mortality at 200 ppm [8]

Cn1nc(OCC(F)(F)OC(F)(F)C(F)(F)OC(F)(F)F)c(C(F)(F)F)c1-n1cc(-c2ccc(Cl)c(C(=O)NC3(C#N)CC3)c2)cn1 [compound 18]
≥ 80%: percent effect (mortality or growth inhibition) at 200 ppm [1] | mortality at 200 ppm [2, 9] | mortality at 200 ppm [3, 10] | mortality at 200 ppm [4, 11] | mortality at 200 ppm [5, 12] | percent control (mortality, anti-feedant effect or growth inhibition) at 200 ppm [6] | mortality at 12 ppm [7, 13] | mortality at 200 ppm [8, 14]

Cn1nc(OCC(F)(F)C(F)(F)C(F)(F)F)c(C(F)(F)F)c1-n1cc(-c2ccc(Cl)c(C(=O)NC3(C#N)CC3)c2)cn1 [compound 19]
≥ 80%: percent control (mortality or growth inhibition) at 200 ppm [1] | mortality at 200 ppm [2] | mortality at 200 ppm [3] | mortality at 200 ppm [4] | mortality at 200 ppm [5] | mortality at 200 ppm [6] | mortality at 12 ppm [7] | mortality at 200 ppm [8]

Cn1nc(OCC(F)(F)C(F)(F)C(F)(F)C(F)F)c(C(F)(F)F)c1-n1cc(-c2ccc(Cl)c(C(=O)NC3(C#N)CC3)c2)cn1 [compound 20]
≥ 80%: percent control (mortality or growth inhibition) at 200 ppm [1] | mortality at 200 ppm [2] | mortality at 200 ppm [3] | mortality at 200 ppm [4] | mortality at 200 ppm [5] | mortality at 200 ppm [6] | mortality at 12 ppm [7] | mortality at 200 ppm [8]

Cn1nc(OCC(F)F)c(C(F)(F)F)c1-n1cc(-c2ccc(Cl)c(C(=O)NC3(C#N)CC3)c2)cn1 [compound 23]
≥ 80%: percent effect (mortality or growth inhibition) at 200 ppm [1] | mortality at 200 ppm [2, 9] | mortality at 200 ppm [3, 10] | mortality at 200 ppm [4, 11] | mortality at 200 ppm [5, 12] | percent control (mortality, anti-feedant effect or growth inhibition) at 200 ppm [6] | mortality at 12 ppm [7, 13] | mortality at 200 ppm [8, 14]

Cn1nc(OCC(F)(F)OC(F)(F)C(F)(F)OC(F)(F)F)c(C(F)(F)F)c1-n1cc(-c2ccc(Cl)c(C(=O)NC3CC3)c2)cn1 [compound 25]
≥ 80%: percent effect (mortality or growth inhibition) at 200 ppm [1] | mortality at 200 ppm [2, 9] | mortality at 200 ppm [3, 10] | mortality at 200 ppm [4, 11] | mortality at 200 ppm [5, 12] | percent control (mortality, anti-feedant effect or growth inhibition) at 200 ppm [6] | mortality at 12 ppm [7, 13] | mortality at 200 ppm [8, 14]

Cn1nc(OCC(F)(F)C(F)(F)C(F)(F)F)c(C(F)(F)F)c1-n1cc(-c2ccc(Cl)c(C(=O)NC3CC3)c2)cn1 [compound 26]
≥ 80%: percent control (mortality or growth inhibition) at 200 ppm [1] | mortality at 200 ppm [2] | mortality at 200 ppm [3] | mortality at 200 ppm [4] | mortality at 200 ppm [5] | mortality at 200 ppm [6] | mortality at 12 ppm [7] | mortality at 200 ppm [8]

Cn1nc(OCC(F)(F)C(F)(F)C(F)(F)C(F)F)c(C(F)(F)F)c1-n1cc(-c2ccc(Cl)c(C(=O)NC3CC3)c2)cn1 [compound 27]
≥ 80%: percent control (mortality or growth inhibition) at 200 ppm [1] | mortality at 200 ppm [2] | mortality at 200 ppm [3] | mortality at 200 ppm [4] | mortality at 200 ppm [5] | mortality at 200 ppm [6] | mortality at 12 ppm [7] | mortality at 200 ppm [8]

Cn1nc(OCC(F)(F)C(F)F)c(C(F)(F)F)c1-n1cc(-c2ccc(Cl)c(C(=O)NC3(C#N)CC3)c2)cn1 [compound 30]
≥ 80%: percent effect (mortality or growth inhibition) at 200 ppm [1] | mortality at 200 ppm [2, 9] | mortality at 200 ppm [3, 10] | mortality at 200 ppm [4, 11] | mortality at 200 ppm [5, 12] | percent control (mortality, anti-feedant effect or growth inhibition) at 200 ppm [6] | mortality at 12 ppm [7, 13] | mortality at 200 ppm [8, 14]

Cn1nc(OCC(F)(F)C(F)(F)F)c(C(F)(F)F)c1-n1cc(-c2ccc(Cl)c(C(=O)NC3CC3)c2)cn1 [compound 32]
≥ 80%: percent effect (mortality or growth inhibition) at 200 ppm [1] | mortality at 200 ppm [2, 9] | mortality at 200 ppm [3, 10] | mortality at 200 ppm [4, 11] | mortality at 200 ppm [5, 12] | percent control (mortality, anti-feedant effect or growth inhibition) at 200 ppm [6] | mortality at 12 ppm [7, 13] | mortality at 200 ppm [8, 14]

Cn1nc(OCC(F)(F)C(F)F)c(C(F)(F)F)c1-n1cc(-c2ccc(Cl)c(C(=O)NC3CC3)c2)cn1 [compound 33]
≥ 80%: percent effect (mortality or growth inhibition) at 200 ppm [1] | mortality at 200 ppm [2, 9] | mortality at 200 ppm [3, 10] | mortality at 200 ppm [4, 11] | mortality at 200 ppm [5, 12] | percent control (mortality, anti-feedant effect or growth inhibition) at 200 ppm [6] | mortality at 12 ppm [7, 13] | mortality at 200 ppm [8, 14]

Cn1nc(OC(F)(F)C(F)Br)c(C(F)(F)F)c1-n1cc(-c2ccc(Cl)c(C(=O)NC3(C#N)CC3)c2)cn1 (centres unmarked) [compound 47]
≥ 80%: percent effect (mortality or growth inhibition) at 200 ppm [1] | mortality at 200 ppm [2, 9] | mortality at 200 ppm [3, 10] | mortality at 200 ppm [4, 11] | mortality at 200 ppm [5, 12] | percent control (mortality, anti-feedant effect or growth inhibition) at 200 ppm [6] | mortality at 12 ppm [7, 13] | mortality at 200 ppm [8, 14]

Cn1nc(OC(F)(F)C(F)(C(F)=C(F)C(F)(F)F)C(F)(F)F)c(C(F)(F)F)c1-n1cc(-c2ccc(Cl)c(C(=O)NC3(C#N)CC3)c2)cn1 (centres unmarked) [compound 50]
≥ 80%: percent effect (mortality or growth inhibition) at 200 ppm [1] | mortality at 200 ppm [2, 9] | mortality at 200 ppm [3, 10] | mortality at 200 ppm [4, 11] | mortality at 200 ppm [5, 12] | percent control (mortality, anti-feedant effect or growth inhibition) at 200 ppm [6] | mortality at 12 ppm [7, 13] | mortality at 200 ppm [8, 14]

CN(C(=O)c1cc(-c2cnn(-c3c(C(F)(F)F)c(OC(F)(F)C(F)C(F)(F)F)nn3C)c2)ccc1Cl)C1(C#N)CC1 (centres unmarked) [compound 55]
≥ 80%: percent effect (mortality or growth inhibition) at 200 ppm [1] | mortality at 200 ppm [2, 9] | mortality at 200 ppm [3, 10] | mortality at 200 ppm [4, 11] | mortality at 200 ppm [5, 12] | percent control (mortality, anti-feedant effect or growth inhibition) at 200 ppm [6] | mortality at 12 ppm [7, 13] | mortality at 200 ppm [8, 14]

Cn1nc(OC(F)(F)C(F)C(F)(F)F)c(C(F)(F)F)c1-n1cc(-c2ccc(F)c(C(=O)NC3(C#N)CC3)c2)cn1 (centres unmarked) [compound 59]
≥ 80%: percent effect (mortality or growth inhibition) at 200 ppm [1] | mortality at 200 ppm [2, 9] | mortality at 200 ppm [3, 10] | mortality at 200 ppm [4, 11] | mortality at 200 ppm [5, 12] | percent control (mortality, anti-feedant effect or growth inhibition) at 200 ppm [6] | mortality at 12 ppm [7, 13] | mortality at 200 ppm [8, 14]

Cn1nc(OC(F)(F)C(F)C(F)(F)F)c(C(F)(F)F)c1-n1cc(-c2ccc(F)c(C(=O)NC3CC3)c2)cn1 (centres unmarked) [compound 60]
≥ 80%: percent effect (mortality or growth inhibition) at 200 ppm [1] | mortality at 200 ppm [2, 9] | mortality at 200 ppm [3, 10] | mortality at 200 ppm [4, 11] | mortality at 200 ppm [5, 12] | percent control (mortality, anti-feedant effect or growth inhibition) at 200 ppm [6] | mortality at 12 ppm [7, 13] | mortality at 200 ppm [8, 14]
